Experimental data reported in US20240199546A1, “INHIBITORS OF SOLUTE CARRIER FAMILY 6A MEMBER 19 (SLC6A19) AND METHODS OF USE THEREOF” (Maze Therapeutics, Inc., priority 2022, published 2024).

What follows are compounds tested against T1, human SLC6A19 and TMEM27 (Homo sapiens, UniProt Q695T7) (assay: Radiolabelled (3H) leucine uptake in CHO cells with doxycycline-inducible expression of human SLC6A19 and TMEM27 (Example B-1)). Conditions: CHO cells with doxycycline-inducible expression of human SLC6A19 and TMEM27, read-out: SLC6A19_Radioligand Uptake Assay IC50.
T1 construct: expressed in transfected cells
T1 sequence (Q695T7 1-634): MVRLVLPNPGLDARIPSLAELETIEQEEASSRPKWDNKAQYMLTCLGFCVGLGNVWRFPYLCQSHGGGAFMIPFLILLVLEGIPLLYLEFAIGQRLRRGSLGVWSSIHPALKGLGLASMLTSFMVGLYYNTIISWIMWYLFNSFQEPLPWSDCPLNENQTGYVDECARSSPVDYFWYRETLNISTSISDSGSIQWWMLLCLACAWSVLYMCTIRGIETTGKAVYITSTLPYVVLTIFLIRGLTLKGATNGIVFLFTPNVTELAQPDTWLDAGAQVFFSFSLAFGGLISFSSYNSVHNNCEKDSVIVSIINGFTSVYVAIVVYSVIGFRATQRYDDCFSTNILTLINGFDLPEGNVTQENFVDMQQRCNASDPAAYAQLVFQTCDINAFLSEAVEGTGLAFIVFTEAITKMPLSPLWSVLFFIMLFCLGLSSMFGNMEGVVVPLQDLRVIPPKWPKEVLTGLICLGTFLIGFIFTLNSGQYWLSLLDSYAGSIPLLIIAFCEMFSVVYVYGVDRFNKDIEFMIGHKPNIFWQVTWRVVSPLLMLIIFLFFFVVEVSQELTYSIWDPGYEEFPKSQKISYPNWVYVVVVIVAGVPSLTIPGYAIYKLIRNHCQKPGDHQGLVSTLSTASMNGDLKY
T1 sequence (Q9HBJ8 15-222 partner): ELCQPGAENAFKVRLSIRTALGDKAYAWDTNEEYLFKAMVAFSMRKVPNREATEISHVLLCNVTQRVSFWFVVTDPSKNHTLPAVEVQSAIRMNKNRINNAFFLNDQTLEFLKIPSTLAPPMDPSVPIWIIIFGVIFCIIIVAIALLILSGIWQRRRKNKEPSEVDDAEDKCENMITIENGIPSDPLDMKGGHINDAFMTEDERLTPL
Assay type: cell-based
Summary of the method: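 CHO cells were induced with doxycycline for 18 h at 37 °C, washed in HBSS, then exposed to compounds for 1 h: 8-point, 3-fold dilutions in duplicate, 0.5% DMSO final. Uptake measured by scintillation counting after 2 h shaking. Activity normalized with positive control as 0% and DMSO as 100%.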

| Structure (SMILES) | IC50 [nM] |
| --- | --- |
| CC(=O)NCc1cc2cc(F)c(OCc3ccon3)cc2[nH]1 [Compound 207, N-((5-fluoro-6-(isoxazol-3-ylmethoxy)-1H-indol-2-yl)methyl)acetamide] | 926 |
| CC(C#N)C(=O)NCc1cc2cc(Cl)c(OCc3cscn3)cc2[nH]1 (racemic) [Compound 445, (S)-N-((5-chloro-6-(thiazol-4-ylmethoxy)-1H-indol-2-yl)methyl)-2-cyanopropanamide and (R)-N-((5-chloro-6-(thiazol-4-ylmethoxy)-1H-indol-2-yl)methyl)-2-cyanopropanamide] | 444 |
| CC(F)C(=O)NCc1cc2cc(Cl)c(OCc3cscn3)cc2[nH]1 (single isomer, unassigned) [Compound 443, (S or R)-N-((5-chloro-6-(thiazol-4-ylmethoxy)-1H-indol-2-yl)methyl)-2-fluoropropanamide] | 64.2 |
| CC1CCN(C(=O)NCc2cc3cc(F)c(OCc4ccon4)cc3[nH]2)C1 (stereo not shown) [Compound 91, N-((5-fluoro-6-(isoxazol-3-ylmethoxy)-1H-indol-2-yl)methyl)-3-methylpyrrolidine-1-carboxamide] | 524 |
| O=C(NCc1cc2cc(Cl)c(OCc3ccon3)cc2[nH]1)N1CCOCC1 [Compound 84, N-((5-chloro-6-(isoxazol-3-ylmethoxy)-1H-indol-2-yl)methyl)morpholine-4-carboxamide] | 690 |
| Cc1cc(COc2cc3[nH]c(CNC(=O)C[C@H]4CCOC4)cc3cc2Cl)on1 [Compound 290, (R)-N-((5-chloro-6-((3-methylisoxazol-5-yl)methoxy)-1H-indol-2-yl)methyl)-2-(tetrahydrofuran-3-yl)acetamide] | 5290 |
| CC(F)(F)C(=O)NCc1cc2cc(F)c(OCc3cscn3)cc2[nH]1 [Compound 436, 2,2-difluoro-N-((5-fluoro-6-(thiazol-4-ylmethoxy)-1H-indol-2-yl)methyl)propanamide] | 97 |
| CC(=O)NCc1cc2c(F)cc(OCc3ccon3)cc2[nH]1 [Compound 453, N-((4-fluoro-6-(isoxazol-3-ylmethoxy)-1H-indol-2-yl)methyl)acetamide] | 859 |
| CC(C)c1cc2cc(CNC(=O)C3(C)CC3)[nH]c2cc1OCc1cscn1 [Compound 186, N-((5-isopropyl-6-(thiazol-4-ylmethoxy)-1H-indol-2-yl)methyl)-1-methylcyclopropane-1-carboxamide] | 968 |
| Cc1cc(COc2cc3[nH]c(CNC(=O)[C@H]4C[C@@H](O)C4)cc3cc2Cl)on1 [Compound 253, (1S,3S)-N-((5-chloro-6-((3-methylisoxazol-5-yl)methoxy)-1H-indol-2-yl)methyl)-3-hydroxycyclobutane-1-carboxamide] | 606 |
| CC1(C(=O)NCc2cc3cc(Cl)c(OCC4CC(F)(F)C4)cc3[nH]2)CC1 [Compound 353, N-((5-chloro-6-((3,3-difluorocyclobutyl)methoxy)-1H-indol-2-yl)methyl)-1-methylcyclopropane-1-carboxamide] | 1930 |
| Cc1cc(COc2cc3[nH]c(CNC(=O)NCC(F)F)cc3cc2Cl)on1 [Compound 374, 1-((5-chloro-6-((3-methylisoxazol-5-yl)methoxy)-1H-indol-2-yl)methyl)-3-(2,2-difluoroethyl)urea] | 412 |
| Cc1cc(COc2cc3[nH]c(CNC(=O)C[C@@H]4CCOC4)cc3cc2Cl)on1 [Compound 289, (S)-N-((5-chloro-6-((3-methylisoxazol-5-yl)methoxy)-1H-indol-2-yl)methyl)-2-(tetrahydrofuran-3-yl)acetamide] | 2020 |
| Cc1cc(COc2cc3[nH]c(CNC(=O)C4CCO4)cc3cc2Cl)on1 (stereo not shown) [Compound 278, N-((5-chloro-6-((3-methylisoxazol-5-yl)methoxy)-1H-indol-2-yl)methyl)oxetane-2-carboxamide] | 108 |

The remaining lines, values ahead:

| IC50 [nM] | Structure (SMILES) |
| --- | --- |
| 243 | CCC(=O)NCc1cc2c(F)cc(OCc3ccon3)cc2[nH]1 [Compound 517, N-((4-fluoro-6-(isoxazol-3-ylmethoxy)-1H-indol-2-yl)methyl)propionamide] |
| 4610 | CC(=O)NCc1cc2c(F)cc(OCc3cc(C)no3)cc2[nH]1 [Compound 527, N-((4-fluoro-6-((3-methylisoxazol-5-yl)methoxy)-1H-indol-2-yl)methyl)acetamide] |
| 123 | Cc1cc(COc2cc3[nH]c(CNC(=O)C(F)(F)F)cc3cc2Cl)on1 [Compound 662, N-((5-chloro-6-((3-methylisoxazol-5-yl)methoxy)-1H-indol-2-yl)methyl)-2,2,2-trifluoroacetamide] |
| 84.8 | COC(=O)NCc1cc2cc(F)c(OCc3cscn3)cc2[nH]1 [Compound 622, methyl ((5-fluoro-6-(thiazol-4-ylmethoxy)-1H-indol-2-yl)methyl)carbamate] |
| 307 | O=C(NCc1cc2cc(OC(F)(F)F)c(CCc3ccon3)cc2[nH]1)N1CCC1 [Compound 597, N-((6-(2-(isoxazol-3-yl)ethyl)-5-(trifluoromethoxy)-1H-indol-2-yl)methyl)azetidine-1-carboxamide] |
| 392 | Cc1cc(CNc2cc3[nH]c(CNC(=O)N4CCCC4)cc3cc2Cl)no1 [Compound 469, N-((5-chloro-6-(((5-methylisoxazol-3-yl)methyl)amino)-1H-indol-2-yl)methyl)pyrrolidine-1-carboxamide] |
| 174 | Cc1cc(COc2cc3[nH]c(CNC(=O)CC(F)(F)F)cc3cc2Cl)on1 [Compound 564, N-((5-chloro-6-((3-methylisoxazol-5-yl)methoxy)-1H-indol-2-yl)methyl)-3,3,3-trifluoropropanamide] |
| 340 | O=C(NCc1cc2cc(C3CC3)c(OCc3cscn3)cc2[nH]1)N1CCC1 [Compound 651, N-((5-cyclopropyl-6-(thiazol-4-ylmethoxy)-1H-indol-2-yl)methyl)azetidine-1-carboxamide] |
| 814 | O=C(NCc1cc2cc(Cl)c(OCc3ccon3)cc2[nH]1)C1CC(F)(F)C1 [Compound 491, N-((5-chloro-6-(isoxazol-3-ylmethoxy)-1H-indol-2-yl)methyl)-3,3-difluorocyclobutane-1-carboxamide] |
| 199 | Cc1cc(COc2cc3[nH]c(CNC(=O)C4(C#N)CC4)cc3cc2Cl)on1 [Compound 484, N-((5-chloro-6-((3-methylisoxazol-5-yl)methoxy)-1H-indol-2-yl)methyl)-1-cyanocyclopropane-1-carboxamide] |
| 1650 | Cc1cc(COc2cc3[nH]c(CNC(=O)[C@@H](C)CO)cc3cc2Cl)on1 [Compound 535, (S)-N-((5-chloro-6-((3-methylisoxazol-5-yl)methoxy)-1H-indol-2-yl)methyl)-3-hydroxy-2-methylpropanamide] |
| 260 | COc1cc2cc(CNC(=O)C3(C)CC3)[nH]c2cc1CCn1cccn1 [Compound 587, N-((6-(2-(1H-pyrazol-1-yl)ethyl)-5-methoxy-1H-indol-2-yl)methyl)-1-methylcyclopropane-1-carboxamide] |
| 372 | O=C(NCc1cc2cc(OC(F)(F)F)c(OCc3cocn3)cc2[nH]1)N1CCC1 [Compound 480, N-((6-(oxazol-4-ylmethoxy)-5-(trifluoromethoxy)-1H-indol-2-yl)methyl)azetidine-1-carboxamide] |
| 631 | CC1(C(=O)NCc2cc3cc(CC#N)c(OCc4cscn4)cc3[nH]2)CC1 [Compound 643, N-((5-(cyanomethyl)-6-(thiazol-4-ylmethoxy)-1H-indol-2-yl)methyl)-1-methylcyclopropane-1-carboxamide] |
| 385 | CC1(C(=O)NCc2cc3cc(OC(F)(F)F)c(CCc4ccon4)cc3[nH]2)CC1 [Compound 510, N-((6-(2-(isoxazol-3-yl)ethyl)-5-(trifluoromethoxy)-1H-indol-2-yl)methyl)-1-methylcyclopropane-1-carboxamide] |
| 666 | CC1(C(=O)NCc2[nH]c3cc(OCc4cscn4)ccc3c2C(F)(F)F)CC1 [Compound 640, 1-methyl-N-((6-(thiazol-4-ylmethoxy)-3-(trifluoromethyl)-1H-indol-2-yl)methyl)cyclopropane-1-carboxamide] |
| 3600 | Cc1cc(COc2cc3[nH]c(CNC(=O)C4CCN(C)C4=O)cc3cc2Cl)on1 (racemic) [Compound 574, (R)-N-((5-chloro-6-((3-methylisoxazol-5-yl)methoxy)-1H-indol-2-yl)methyl)-1-methyl-2-oxopyrrolidine-3-carboxamide and (S)-N-((5-chloro-6-((3-methylisoxazol-5-yl)methoxy)-1H-indol-2-yl)methyl)-1-methyl-2-oxopyrrolidine-3-carboxamide] |
